Test results taken from patent US4593119A, “Method for treatment or prophylaxis of cardiac disorders” (American Hospital Supply Corporation, priority 1982, dated 1986).
Where a name gives a salt, the structure may show the parent alone. Read-outs that look alike come from different tables or passages of the source.

Columns and labels:
[1] = tested on: beta-receptor mediated tachycardia (dog heart rate); assay: beta-blockade in vivo in pentobarbital-anesthetized dogs, 40-minute infusion, inhibition of heart rate response to isoproterenol and recovery
Description: (§1) The duration of beta-blockage was determined in vivo using pentobarbital-anesthetized dogs instrumented for measurement of heart rate using a Beckman cardiotachometer triggered electronically by a phasic aortic blood pressure signal. Both vagus nerves were severed in the cervical region and the animals were mechanically ventilated. Two experimental designs were used. The first employed a 40-minute infusion of test compound and the second used a 3-hour infusion of test compound. In the 40-minute model, isoproterenol was infused into a foreleg vein at the rate of […] to induce a beta-receptor mediated tachcardia. Various doses of test compound were then infused into a femoral vein over a period of 40 minutes. This infusion was then terminated and recovery from blockade was quantitated. […] This cumulative dose is expressed as mg/kg and is an indication of potency. The time period required for 80% recovery of heart rate for each dose of test drug was also measured to quantitate duration of action. […] Test compound were dissolved in 0.9% NaCl and infused at a rate of 0.05 ml/Mg/min or less. In the 3-hour infusion model, bolus doses of isoproterenol ([…]) were used to assess the degree of beta-blockade and recovery from beta-blockage after termination of the infusion. The doses were spaced at 10-minute intervals and were given before, during and following the infusion of test compounds. The infusion rate was adjusted so that the end of the 3-hour infusion period the degree of isoproterenol inhibition averaged about 50% of control.

[2] = disappearance in vitro in human whole blood; format: in vitro ADME; conditions: 37° C., 50 μg test compound, read-out: T1/2 Human Blood
Description: (§2) The rate of disappearance of a compound is expressed as the half-life (T1/2), which is the time period in which one-half of the initial amount of compound tested disappears. […] At the designated time periods, the test mixtures were removed from the incubator and transferred to a 0° C. ice bath. Acetonitrile (2 mL) was immediately added, and the mixtures were mixed to stop enzymatic hydrolysis. Zero time samples were prepared by adding 2 mL of acetonitrile to denature the proteins prior to addition of the test compounds. […] The half-life of each test compound was determined graphically by plotting the decrease in concentration as a function of time.

[3] = tested on: β-adrenergic receptors, guinea pig right atria; assay: β-blocking activity in vitro, guinea pig right atria (rate response to isoproterenol); format: cell-based
Description: (§3) Each tissue was suspended between a fixed glass rod and a Statham Universal Transducer connected to a Beckman recorder. Atria were allowed to beat spontaneously under a loading tension of approximately 0.5 g. Changes in rate of response to isoproterenol, a standard β-receptor agonist, were measured in the absence and presence of test compounds. Spiral strips of guinea pig trachea were suspended under 5 g resting tension and incubated with phentolamine, tropolone, and cocaine. Active tension was generated by addition of carbachol (3.0×10^-7 M) and decreases in tension in response to isoproterenol were quantitated. Cumulative concentration response curves were produced with isoproterenol both before and after 60-minute incubation of test compounds with atria and trachea. Compounds with β-blocking activitiy shifted concentration response curves to the right. […] The degree of cardioselectivity was estimated from the ratio KB trachea/KB atria 10(pA2 Atria -pA^2 Trachea). A ratio greater than one indicates cardioselectivity. […]

[4] = disappearance in vitro in dog whole blood; format: in vitro ADME; conditions: 37° C., 50 μg test compound, read-out: T1/2 Dog Blood
Description: as §2

[5] = tested on: heart rate response to isoproterenol (dog); assay: beta-blockade in vivo in pentobarbital-anesthetized dogs, 3-hour infusion, inhibition of heart rate response to isoproterenol and recovery; conditions: 80% recovery after 3-hour infusion
Description: as §1

[6] = disappearance in vitro in dog liver homogenate; format: in vitro ADME; conditions: 33% (w/v) dog liver homogenate, 37° C., 50 μg test compound; read-out: T1/2 Dog Liver
Description: as §2

[7] = molecular target: T1, β-adrenergic receptors, guinea pig tracheal strips (Cavia porcellus, UniProt Q8K4Z4); assay: β-blocking activity in vitro, guinea pig tracheal strips (tension response to isoproterenol); format: cell-based; conditions: for Kb: read-out: pA2 Trachea (converted); for pA2 Trachea: pA2 = -log KB, vs isoproterenol, 60-minute incubation, tracheal tension
T1 construct: Spiral strips of guinea pig trachea; from tissue; host or cells: guinea pig trachea, spiral strips
Description: as §3

[8] = molecular target: β-adrenergic receptors, guinea pig right atria (Cavia porcellus, UniProt H0W3H1); assay: β-blocking activity in vitro, guinea pig right atria (rate response to isoproterenol); format: cell-based; conditions: read-out: pA2 Atria (converted)
Description: as §3

[9] = Canis lupus familiaris, iv, 40 min; read-out: Potency mg/kg/40 min
[10] = time for 80% recovery of heart rate after 40-minute i.v. infusion, dogs; in min
[11] = ratio KB trachea/KB atria, greater than one indicates cardioselectivity

T1 sequence (Q8K4Z4 whole entry): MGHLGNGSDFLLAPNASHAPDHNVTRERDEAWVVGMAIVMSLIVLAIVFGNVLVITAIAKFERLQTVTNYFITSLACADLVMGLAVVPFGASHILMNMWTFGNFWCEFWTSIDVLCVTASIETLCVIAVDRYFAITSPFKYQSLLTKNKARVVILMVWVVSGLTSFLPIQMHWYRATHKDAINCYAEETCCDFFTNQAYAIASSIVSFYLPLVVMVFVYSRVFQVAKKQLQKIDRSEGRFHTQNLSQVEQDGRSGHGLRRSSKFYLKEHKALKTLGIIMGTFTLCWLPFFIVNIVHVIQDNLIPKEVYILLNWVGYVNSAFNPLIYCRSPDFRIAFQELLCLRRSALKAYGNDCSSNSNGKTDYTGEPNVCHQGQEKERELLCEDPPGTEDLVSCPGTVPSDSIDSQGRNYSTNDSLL
Sequence of β-adrenergic receptors, guinea pig right atria (Cavia porcellus, UniProt H0W3H1) (H0W3H1 1-470): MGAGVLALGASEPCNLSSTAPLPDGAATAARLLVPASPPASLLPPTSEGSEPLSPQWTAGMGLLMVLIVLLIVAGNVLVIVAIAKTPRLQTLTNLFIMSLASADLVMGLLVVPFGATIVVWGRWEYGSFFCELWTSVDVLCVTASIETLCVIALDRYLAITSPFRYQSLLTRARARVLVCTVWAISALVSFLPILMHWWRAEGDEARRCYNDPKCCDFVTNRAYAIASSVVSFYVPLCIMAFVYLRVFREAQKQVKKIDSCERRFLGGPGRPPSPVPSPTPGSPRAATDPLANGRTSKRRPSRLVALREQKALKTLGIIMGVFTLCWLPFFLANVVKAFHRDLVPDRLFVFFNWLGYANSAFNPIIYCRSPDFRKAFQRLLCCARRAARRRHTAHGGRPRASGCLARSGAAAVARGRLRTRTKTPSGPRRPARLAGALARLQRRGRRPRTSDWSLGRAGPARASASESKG

Row | half-life [2] [min] | half-life [4] [min] | half-life [6] [min] | Compound | ED50 [1, 9] [mg/kg] | 80% Recovery Time [1, 10] | Cardioselectivity [3, 11] | 80% Recovery Time ([5]; in min) | pA2 Trachea [7] | also measured
1 |  |  |  | CC(C)NCC(O)COc1cccc2ccccc12 (stereo not shown) [Propranolol, reference compound] |  |  |  |  |  | ED50 ([1]; Canis lupus familiaris, iv, 40 min, read-out: Potency mg/kg/40 min): 0.06 ± 0.01 mg/kg; 80% Recovery Time ([1]; iv, 40 min): 42 ± 9
2 | 44 | 41 | < 5 | COC(=O)CCc1ccc(OCC(O)CNC(C)C)cc1.Cl (stereo not shown) [Example IV, Methyl 3-[4-[2-Hydroxy-3-(isopropylamino)propoxy]-phenyl]propionate Hydrochloride] | 1.35 ± 0.52 | 12 ± 2 | 30 | 12 ± 3 |  | Kb [7]: 2510 nM
3 |  |  |  | C=CCOC(=O)c1cccc(OCC(O)CNC(C)C)c1 (stereo not shown) [Example XV] |  |  |  |  |  | Kb [8]: 126 nM; Cardioselectivity [3]: 2; 80% Recovery Time [5]: > 60 min; Kb [7]: 63.1 nM
4 |  |  |  | CC(=O)Nc1ccc(OCC(O)CNC(C)C)cc1 (stereo not shown) [Practolol, reference compound] |  |  |  |  |  | 80% Recovery Time ([1]; time for 80% recovery of heart rate after 40-minute i.v. infusion, dogs): 61 min; 80% Recovery Time [5]: > 60 min
5 |  |  |  | COC(=O)CCc1ccc(OCC(O)CNC(C)(C)C)cc1 (stereo not shown) [V] | 4.5 ± 1.5 | 7 ± 2 | 4 | 15 ± 3 | 5.9 | 
6 | 44 | 13 | 2 | COC(=O)CCc1ccc(OCC(O)CNCCc2ccc(OC)c(OC)c2)cc1 (stereo not shown) [VI] |  |  |  | 14 ± 3 | 5.2 | Cardioselectivity [3]: 20
7 |  |  |  | CCCOC(=O)CCc1ccc(OCC(O)CNC(C)C)cc1.Cl (stereo not shown) [XII, n-Propyl 3-[4-[2-Hydroxy-3-(isopropylamino)propoxy]phenyl]propionate Hydrochloride] |  |  | 1.6 |  | 5.2 | 
8 | 7 | 38 | 19 | COC(=O)c1ccccc1OCC(O)CNC(C)C (stereo not shown) [Example IX, Methyl 2-[2-Hydroxy-3-(isopropylamino)propoxy]benzoate] | 0.176 ± 0.02 | 15 ± 2 | 2 | 15 ± 2 | 7.9 | Kb [8]: 6.31 nM
9 |  |  |  | COC(=O)c1ccc(OCC(O)CNC(C)(C)C)cc1 (stereo not shown) [VIII, Methyl 4-[2-Hydroxy-3-(t-butylamino)propoxy]benzoate] |  |  |  |  | 5.4 | Cardioselectivity [3]: 32
10 |  |  |  | C=CCOC(=O)c1ccc(OCC(O)CNC(C)C)cc1 (stereo not shown) [Example XIV, 3-Propenyl 4-[2-Hydroxy-3-(isopropylamino)propoxy]benzoate] |  |  | 4 |  |  | Kb [8]: 501 nM; Kb [7]: 2000 nM
11 | 7 | 17 | 5 | COC(=O)c1ccccc1OCC(O)CNC(C)(C)C (stereo not shown) [Example X, Methyl 2-[2-Hydroxy-3-(t-butylamino)propoxy]benzoate Hydrochloride Hemihydrate] | 0.14 ± 0.04 | 12 ± 1 |  | 22 ± 5 |  | 
12 |  |  |  | C=CCOC(=O)c1ccccc1OCC(O)CNC(C)C (stereo not shown) [Example XVI] |  |  | 1 | 36 ± 5 |  | Kb [8]: 12.6 nM; Kb [7]: 12.6 nM
13 | 11 | 120 | < 2.5 | COC(=O)CCc1ccccc1OCC(O)CNC(C)C (stereo not shown) [XIII] |  |  |  | 29 ± 6 |  | 

Row | Compound | half-life [2] [min] | half-life [4] [min] | half-life [6] [min] | ED50 [1, 9] [mg/kg] | 80% Recovery Time [1, 10] | Cardioselectivity [3, 11] | 80% Recovery Time ([5]; in min) | pA2 Trachea [7] | also measured
14 | COC(=O)c1ccc(OCC(O)CNC(C)C)cc1.Cl (stereo not shown) [Example I, Methyl 4-[2-Hydroxy 3-(isopropylamino)propoxy]benzoate Hydrochloride] | > 60 | 60 | > 180 | 3.7 ± 1.3 | 34 ± 11 | 19 |  | 5.5 | 
15 | COC(=O)c1ccccc1OCC(O)CNCCc1ccc(OC)c(OC)c1.O=C(O)C(=O)O (stereo not shown) [Example XI, Methyl 2-[2-Hydroxy-3-(3,4-dimethoxyphenethylamino)propoxy]benzoate Oxalate] | 8 | 120 | 3 |  |  | 16 | 30 ± 4 | 7.1 | 
16 | COC(=O)Cc1ccc(OCC(O)CNC(C)C)cc1.Cl (stereo not shown) [III, Methyl 4-[2-Hydroxy-3-(isopropylamino)propoxy]phenylacetate hydrochloride] | 2 | 60 | 5 | 2.3 ± 0.6 | 20 ± 5 |  |  | 5.4 | 
17 | CCOC(=O)c1ccc(OCC(O)CNC(C)C)cc1.Cl (stereo not shown) [II, Ethyl 4-[2-Hydroxy-3-(isopropylamino)propoxy]benzoate Hydrochloride] | > 60 | 60 |  | 5.7 ± 1.6 | 56 ± 6 | 2.5 |  | 6.1 | 
